Laboratory results reported in patent publication US11311525B2, “Use of alpha 7 nicotinic acetylcholine receptor agonists” (Novartis AG, priority 2013, dated 2022).

How the values were obtained:
[1] = cited from earlier work
[2] = system: orexin-deficient mice; assay: Orexin-deficiency model: number of narcoleptic episodes (behavioral arrests); format: in vivo
Description: Male transgenic mice with a knockout of the orexin peptide gene are used. Orexin-deficient mice express a phenotype with cataplexy events (observed as ‘behavioral arrests’) and a disrupted sleep pattern including fragmented sleep and sleepiness in their active period.
The animals are observed and videotaped via infrared cameras during the first hours of the lights-off period which is the active phase of nocturnal rodents like mice. At this time, orexin-deficient mice show the most ‘behavioral arrests’. The number of these events can be furthermore increased by presenting a new environment. For this purpose, new saw dust, a running wheel, marbles and tunnels are placed in the test environment. The number of ‘behavioral arrests’ are offline counted by the experimenter for each hour of recording. Behavioral arrests were defined by phases of total inactivity outside the next box, which last longer than 10 second, preceded and followed by robust locomotor activity (see also Scammell et al., 2009, Sleep 32(1): 111-116). Some of the animals have temporal skull EEG electrodes implanted which are connected to transmitters. The EEG is recorded via a receiver and stored on a PC for further analysis. EEG is used to assess and to quantify sleep behavior and vigilance stage.
A cross-over design is used because of the high inter- and intra-individual variability of the behaviors to be observed. Furthermore, to avoid habituation to the test environment, the animals are only tested once per week in the test environment. During the remaining days, the animals are in their homecage.
For each experimental session, 3-4 mice are put into the test environment 3 hours before lights-off. The first experimental session (week 1) is used to get a baseline (without treatment). The second and third sessions (weeks 2+3) are used for treatment (vehicle & compound, cross-over design, administration 5 minutes before lights-off). The fourth and last experimental session is again without treatment to evaluate a post-treatment baseline.

[3] = system: mice; assay: EEG assessment of sleep behavior and vigilance stage; format: in vivo; details: for Active wake (β and γ frequencies), mean difference drug-vehicle / NREM (δ frequency), mean difference drug-vehicle / Quiet wake (α frequency), mean difference drug-vehicle / REM (θ frequency), mean difference drug-vehicle: 30 mg/kg oral
Description: Animals have temporal skull EEG electrodes implanted which are connected to transmitters. Animals were group-housed (2-4) per cage at a constant temperature of 22±1° C., on a 12:12 light-dark schedule. The EEG is recorded via a receiver and stored on a PC for further analysis. EEG is used to assess and to quantify sleep behavior and vigilance stage.
Animals were given a 1-day period of acclimatization in the recording cages with recording cables connected. On the 1st day of the experiment, EEG recordings were made continuously during a 22-hours period beginning at 11 A.M., 15 min after vehicle administration. On the second day of the experiment, EEG recordings were carried out in the same way, but 15 minutes after drug administration. In this way, each animal served as its own control. 10 animals were recorded from simultaneously in each experiment. Automatic evaluation of the nycthemeral cycle (REM sleep, classical sleep, wakefulness and an awake non-vigilant state termed “drowsiness”) was performed as described (Vigouret et al., 1978 Pharmacology 16 Suppl 1:156-73). In the present context, “quiet wake” and “active wake”, describe conscious animals in a resting and an active state, respectively, while “REM” and “NREM” represent sleep states.
FIG. 3 depicts the effects of 30 mg/kg compound B-1, orally administered 6 h after lights on (9:00) in mice (n=10) on quiet wake (α frequency, 9.5-12.5 Hz), active wake (β frequency, 12.5-30.5 Hz; and γ frequency, >30.5 Hz), REM sleep (θ frequency, 4.5-9.5 Hz) and NREM sleep (δ frequency, <4.5 Hz). Assessment period shown is 3 hours.

[4] = system: brain tMHA levels; assay: Brain tele-methylhistamine (tMHA) levels by LC-MS; format: in vivo, mice; details: oral, 30 minutes after administration
Description: Histamine (HA) is released all over the brain by tuberomammillary nucleus neurons. […] HA is metabolized by histamine-N-methyltransferase to tele-methylhistamine (tMHA) in some tissues, including brain.
Mice (n=8) were treated during the first hour of the lights-on period and sacrificed 30 min later. Brain tissue was collected and subjected to LC-MS analysis (Croyal et al. Analytical Biochemistry, 2011, 409:28-36) to determine t-MHA levels.

[5] = system: Cynomolgus monkey; assay: Signs for emergence from ketamine/sevoflurane anesthesia in nonhuman primate (PET experiment); format: in vivo
Description: Said experiment was performed on the α7 nAChR in the non-human primate (NHP) brain.
An animal (Cynomolgus monkey, male, 5.8 kg) was anesthesized for the entire duration of the PET experiment, i.e. for approximately 7.5 hours. Due to the nature of these experiments, it is crucial that anesthesia is maintained.
General anesthesia was induced by i.m. injection of ketamine hydrochloride (10 mg/kg, Ketaminol, Intervet AB). The animal was intubated and general anesthesia was maintained by inhalational administration of sevoflurane (1.5-8%, Abbott Scandinavia AB). Body temperature was maintained by Bair Hugger Model 505 (Arizant Healthcare Inc., Eden Prairie, Minn., USA). ECG, pulse, blood pressure, respiration rate, oxygen saturation and tidal CO2 level were monitored continuously during the experiment. Ventilation of the animal (breathing frequency and volume) was controlled by machine during the general anesthesia. The animal underwent two consecutive PET scans. The PET ligand was administered i.v. at doses too low to have a pharmacodynamic effect (i.e. total dose of 0.16 and 0.25 μg). Before the start of the second PET scan, 10 mg/kg of compound A-1 was administered to the animal using an oral gavage tube.

[6] = 30 mg/kg oral 6 h after lights on, 3 hours assessment

CCCC(C)C1(CC)C(=O)NC(=S)NC1=O (centres unmarked) [thiopentone]
dose remaining in the body ([1]; at 24 hours): ≤ 30%
elimination by oxidative metabolism in the liver, rate ([1]; in vivo): 15 % per hour
elimination half-life ([1]; in vivo): 3.4 to 22 h
initial drug effect terminated by redistribution, time ([1]; in vivo): 5 to 15 min

Cc1ccc(-c2ccc(O[C@H]3CN4CCC3CC4)cn2)cc1 [B-1, (R)-3-(6-p-tolyl-pyridin-3-yloxy)-1-aza-bicyclo[2.2.2]octane]
decrease of number of narcoleptic episodes, first hour of the observation period ([2]; 10 mg/kg orally directly before lights-off, p<0.05 Anova): ca. 66%
effect on NREM sleep [3, 6]: decline of NREM sleep
effect on time spent in quiet wake [3, 6]: increases the time spent in quiet wake
Active wake (β and γ frequencies), mean difference drug-vehicle ([3]; time point 9:30): 0.9 min
NREM (δ frequency), mean difference drug-vehicle ([3]; time point 9:30): -12.4 min
Quiet wake (α frequency), mean difference drug-vehicle ([3]; time point 9:30): 14.3 min
REM (θ frequency), mean difference drug-vehicle ([3]; time point 9:30): -2.2 min
Active wake (β and γ frequencies), mean difference drug-vehicle ([3]; time point 10:30): 3.6 min
NREM (δ frequency), mean difference drug-vehicle ([3]; time point 10:30): -7.1 min
Quiet wake (α frequency), mean difference drug-vehicle ([3]; time point 10:30): 6.1 min
REM (θ frequency), mean difference drug-vehicle ([3]; time point 10:30): -2.1 min
Active wake (β and γ frequencies), mean difference drug-vehicle ([3]; time point 11:30): 0.1 min
NREM (δ frequency), mean difference drug-vehicle ([3]; time point 11:30): 2.1 min
Quiet wake (α frequency), mean difference drug-vehicle ([3]; time point 11:30): -1.8 min
REM (θ frequency), mean difference drug-vehicle ([3]; time point 11:30): -0.9 min
Active wake (β and γ frequencies), mean difference drug-vehicle ([3]; time point 12:30): 0.3 min
NREM (δ frequency), mean difference drug-vehicle ([3]; time point 12:30): -0.1 min
Quiet wake (α frequency), mean difference drug-vehicle ([3]; time point 12:30): -0.9 min
REM (θ frequency), mean difference drug-vehicle ([3]; time point 12:30): -0.2 min
brain tMHA levels ([4]; all doses tested): significantly elevated

C[C@H](OC(=O)N[C@@H]1CN2CCC1CC2)c1ccccc1F [A-1, (S)-(1-aza-bicyclo[2.2.2]oct-3-yl)-carbamic acid (S)-1-(2-fluoro-phenyl)-ethyl ester]
brain tMHA levels ([4]; 10 mg/kg dose): significant elevation
change in breathing behavior (sign for emergence from general anesthesia) ([5]; 10 mg/kg oral gavage, fifteen minutes after administration, sevoflurane 2.9%): shallow breathing was observed
doses of sevoflurane necessary to maintain anesthesia after the compound ([5]; rest of experiment (about two hours) after 10 mg/kg oral, 2.6-2.9% before the compound): 3.0-3.7%

C[C@H]1[C@H](Oc2ccc(-c3ccc4[nH]ccc4c3)nn2)C2CCN1CC2 [B-4, (2S,3R)-3-[6-(1H-indol-5-yl)-pyridazin-3-yloxy]-2-methyl-1-aza-bicyclo[2.2.2]octane]
decrease of number of narcoleptic episodes, whole 4 hours observation period ([2]; 3 mg/kg orally directly before lights-off, p=0.03): ca. 25%
reduction of number of narcoleptic episodes, first hour ([2]; 3 mg/kg orally directly before lights-off, p=0.04): ca. 47%
